Assay results as given in patent US5534554A, “Sucrose ester-C20 to C28 alcohol formulations” (priority 1994, dated 1996).
Entries after “also recorded” stand apart in the source; their conditions may differ.

What was measured:
[1] = test system: HSV-1; assay: Inhibition of HSV-1-induced cutaneous lesions (vesicles) in hairless guinea pigs; format: in vivo; conditions: continued treatment
Text: Burroughs Wellcome Co., Research Triangle Park, N.C.; the current agent of choice for treatment of HSV infections which inhibits activity of viral DNA polymerase) in inhibiting HSV-1-induced cutaneous lesions in hairless guinea pigs. […] To confirm in an experimental animal model the efficacy of n-docosanol cream on HSV-induced lesions, and to compare its activity to that of […], hairless guinea pigs were inoculated with 1×10^6 PFU of HSV-1, and then treated with either n-docosanol-containing or control cream, or […] ointment. The n-docosanol creams were constructed as described. The control cream was constructed in a similar manner except stearic acid was substituted for n-docosanol. Treatment was started either 2 or 48 hours after virus inoculation. The sites were evaluated for vesicle formation, defined as a pus-filled blister, at the indicated time points.

[2] = test system: poliovirus; format: cell-based; conditions: nonenveloped virus
[3] = test system: Vero cells
[4] = test system: Herpes simplex virus type 2; assay: Inhibition of HSV type 2 infectivity in simian and human cell lines; format: cell-based, HSV-2
[5] = test system: reovirus; assay: Antiviral activity against reovirus; format: cell-based; conditions: nonenveloped virus
[6] = test system: acyclovir-resistant HSV-2; assay: Plaque inhibition, acyclovir-resistant HSV-2 in Vero cells; format: cell-based; conditions: FIG. 7, Panel B
[7] = test system: HIV-1; assay: HIV-1 replication in PHA/IL-2-stimulated human peripheral blood mononuclear cells (p24 ELISA); format: cell-based
Protocol: Human peripheral blood mononuclear cells were cultured in medium containing 1 μg/ml PHA plus 5 units/ml IL-2 alone or also containing 100 μg/ml PFA, […] F-68 control vehicle contained in the high dose of n-docosanol/Pluronic. After overnight incubation, the cultures were inoculated with HIV-1 at a multiplicity of infection of 1 virion/cell. After 24 hours incubation at 37° C., the cultures were washed and inoculated with fresh medium containing PHA and IL-2, but lacking inhibitor. Replication of HIV-1 was determined 4 days later by quantitation of viral antigens by a p24-specific ELISA for HIV-1.
Our initial studies on HIV were conducted in collaboration with a U.S. National Institutes of Health laboratory and one of several experiments of this type is summarized in FIG. 13. Normal human peripheral blood mononuclear cells were activated with […] PHA plus 5 units/ml of IL-2 in medium alone or in the presence of the n-docosanol, Pluronic F-68 control vehicle, or phosphonoformic acid (PFA). The next day, the cultures were inoculated with HIV-1 and examined 4 days later for evidence of viral replication by detection of the p24 viral antigen. […] The dose response of HIV-1 to n-docosanol indicates an ED 50 of about 6-9 mM.

[8] = test system: Respiratory Syncytial Virus; assay: Antiviral activity against respiratory syncytial virus; format: cell-based; conditions: Table 6, human viruses
[9] = test system: wild-type HSV-2; assay: Plaque inhibition, wild-type HSV-2 in Vero cells; format: cell-based; conditions: FIG. 7, Panel A
[10] = test system: Vero cells; assay: Cellular uptake and distribution of radiolabeled n-docosanol in Vero cells
[11] = test system: HSV; assay: Viral migration to the nucleus (HSV antigens by ELISA, ICP-4 by immunofluorescence); format: cell-based
Text: (§1) The collective implications of the results of the studies are that the compound appears to interfere with one or more of the common pathways of viral entry into the cell and migration to the nucleus of infected target cells.
Thus, the amounts of both HSV core and envelope protein antigens detectable by ELISA, as well as the numbers of infected cells expressing the intranuclear HSV-specific immediate-early protein, ICP-4, by immunofluorescence, are reduced by more than 80%. Finally, the replication of infectious virions as measured in secondary plaque assay cultures is markedly diminished by 99% or more in n-docosanol-treated cells.

[12] = test system: Cytomegalovirus; assay: Antiviral activity against murine cytomegalovirus; format: cell-based, murine virus; conditions: Table 6, murine viruses
[13] = test system: HSV-specific receptors; assay: Binding of herpes virus to HSV-specific receptors on target cells; format: cell-based
Text: as §1

[14] = test system: LP-BM5 Virus; assay: Antiviral activity against LP-BM5 virus; format: cell-based; conditions: Table 6, murine viruses
[15] = test system: Vero or MDBK cells; assay: Uptake and metabolism in Vero versus MDBK cells; format: in vitro ADME, bovine (MDBK)
Protocol: FIG. 11 depicts data showing that n-[^14 C]-docosanol is metabolized more by Vero cells than by MDBK cells. Vero or MDBK cells were plated as described in the specification. n-[^14 C]-Docosanol was added to 6 mM (0.24 mM Tetronic 908) and the cultures were incubated 72 hours at 37° C./CO2. Cells were extracted and analyzed on TLC with hexane:diethyl ether:acetic acid (20:30:1; v:v:v) as the developing solvent. With this solvent system the polar phosphatides remain at the origin. The position of migration of n-docosanol is indicated. Duplicate plates were treated with an identical suspension lacking the radioactive label, and the numbers of cells in these duplicate plates were determined by counting cells excluding trypan blue with a hemocytometer.
When we compared total cellular uptake and relative metabolism, the results were strikingly clear. First, both the total amounts of n-docosanol uptake and the relative amounts of metabolic conversion were 3-4 times higher in Vero than in MDBK cells. […] Nonetheless, of the counts that are metabolized in two cells lines, the relative amounts in the major classes of phosphatides that are formed, phosphatidylcholine and phosphatidylethanolamine, are not different in the two cell lines.

[16] = test system: murine retroviruses; assay: Replication of murine retroviruses in vitro and in vivo
Text: n-Docosanol has anti-retroviral activity both in vitro and in vivo. […] Notwithstanding the implications for treatment of AIDS, availability of a treatment regimen for diseases caused by retroviruses like feline leukemia virus, bovine leukemia virus, as well HTLV-1 and -2 would have substantial benefits in humanitarian terms.

[17] = test system: HSV; assay: Inhibition of HSV replication, Tetronic versus Pluronic suspensions; format: cell-based
[18] = test system: viruses; conditions: U.S. Pat. No. 4,874,794; cited from earlier work
[19] = test system: prostate gland; conditions: oral, U.S. Pat. No. 4,186,211; cited from earlier work
[20] = test system: Cytomegalovirus; assay: Antiviral activity against human cytomegalovirus; format: cell-based, human virus; conditions: Table 6, human viruses

SMILES: CCCCCCCCCCCCCCCCCCCCCCO [n-docosanol]
- vesicle number at the 72 hour time point [1]: many fewer vesicles
- activity against poliovirus [2]: no detectable activity
- counts migrating in the region of phosphatidylcholine [3]: approximately 62%
- counts migrating in the region of phosphatidylethanolamine [3]: ~38%
- levels of metabolic conversion, Tetronic relative to Pluronic [3]: 3 fold
- metabolic conversion [3]: progressively metabolized to polar compounds
- susceptibility to antiviral activity: Herpes Simplex - 2 ([4]; Table 6): susceptible
- inhibitory activity in vitro ([4]; suspension in Pluronic F-68): excellent inhibitory activity
- activity against reovirus [5]: no detectable activity
- inhibition of acyclovir-resistant HSV-2 mutant [6]: very clearly susceptible
- activity at the highest dose compared with PFA ([7]; FIG. 13): comparable to that observed with the very potent antiviral compound, phosphonoformic acid (PFA)
- EC50 ([7]; Human immunodeficiency virus 1, PBMC, dose response of HIV-1, read-out: ED 50 (the source's name)): 6 to 9 mM
- susceptibility to antiviral activity: HIV-1 ([7]; Table 6, human viruses): susceptible
- inhibition of HIV-1 replication ([7]; n-docosanol/Pluronic, FIG. 13): dose-related inhibitory activity
- antiviral HIV activity in Tetronic ([7]; suspended in Tetronic): even higher levels of antiviral HIV activity
- susceptibility to antiviral activity: Respiratory Syncytial Virus [8]: susceptible
- inhibition of plaque formation [9]: inhibit plaque formation by wild type HSV-2 equally
- radioactivity in the soluble cytoplasmic fraction ([10]; after 12 hours of exposure): the balance of radioactivity
- actual bioactive dose relative to the dose shown in FIGS. 7 and 9 ([10]; cultures, from uptake studies): 1/1000
- reduction of uptake of n-docosanol by energy poisons ([10]; sodium azide and 2-deoxyglucose, Vero cells): 90%
- viral migration to the cell nucleus [11]: significantly inhibited; also recorded: substantially blocked
- reduction of HSV core protein antigen ([11]; ELISA): more than 80%
- reduction of HSV envelope protein antigen ([11]; ELISA): more than 80%
- reduction of number of infected cells expressing ICP-4 ([11]; immunofluorescence): more than 80%
- susceptibility to antiviral activity: Cytomegalovirus [12]: susceptible
- effect on viral binding to receptors [13]: does not interfere with binding of herpes virus; also recorded: no effect
- susceptibility to antiviral activity: LP-BM5 Virus [14]: susceptible
- relative metabolic conversion, Vero relative to MDBK cells [15]: 3-4 times
- total uptake, Vero relative to MDBK cells [15]: 3-4 times
- amount of phosphatide metabolite, Vero relative to MDBK cells ([15]; after 72 hours, FIG. 11): ~4 fold
- relative amounts of phosphatidylcholine and phosphatidylethanolamine in the two cell lines ([15]; of counts metabolized): not different
- inhibition of murine retrovirus replication [16]: does inhibit replication of murine retroviruses in vitro and in vivo
- ED50 in Pluronic relative to Tetronic ([17]; suspended in Pluronic F-68): approximately 3 times
- EC50 ([17]; suspended in Tetronic 908, read-out: ED50 for inhibition of HSV replication): 5 to 10 mM
- antiviral properties [18]: favorable
- treatment of enlargement of the prostate gland [19]: therapeutically effective
- susceptibility to antiviral activity: Cytomegalovirus [20]: susceptible
